Measurements from patent US11884671B2, “Purinone compounds and their use in treating cancer” (ASTRAZENECA AB, priority 2018, dated 2024).

Tests used:
[1] = molecular target: Full length human DNAPK protein (Homo sapiens (Human), UniProt P78527); assay: DNAPK enzyme potency assay (DNA-PK enz), TR-FRET; format: biochemical; conditions: arithmetic mean of two or more experiments, 18 μM ATP; for IC50: read-out: DNA-PK enz pIC50 (converted)
Excerpt: The following assays were used to measure the effects of the compounds described herein: a) DNAPK enzyme potency assay; b) DNAPK cellular potency assay. During the description of the assays, generally: • i. The following abbreviations have been used; DMSO=Dimethyl Sulphoxide; DTT=Dithiothreitol; EDTA=Ethylenediaminetetraacetic Acid, TR-FRET=Time Resolved Fluorescence Resonance Energy Transfer, ATP=Adenosine triphosphate, DTT=Dithiothreitol, DNA=Deoxyribonucleic acid, HEPES=(2-hydroxyethyl)-1-piperazineethanesulfonic acid • ii. […] Assay a): DNAPK Enzyme Potency Assay (DNA-PK Enz)
The inhibitory activity of compounds against DNAPK was determined by TR-FRET measuring a fluorescent labelled peptide substrate converting to a phosphorylated product. Fluorescently tagged peptide substrate were purchased from Thermo Fisher Scientific. 12 point half-log compound concentration-response curves, with a top concentration of 100 μM were generated from 10 mM stocks of compound solubilised in DMSO using an Echo 555 (Labcyte Inc., Sunnyvale, CA). All assays were preformed in white Greiner 1536 well low volume plates (Greiner Bio-One, UK), in a total reaction volume of 3 μL and 1% (v/v) final DMSO concentration. Enzymes and substrates were added separately to the compound plates and incubated at room temperature. The kinase reaction was then quenched by the addition of 3 μL of stop buffer. Stopped assay plates were read using a BMG Pherastar. IC50 values were calculated using a Genedata Screener® software (Genedata, Inc., Basel, Switzerland).
Full length human DNAPK protein was purified from HeLa cell extract by ion exchange. Initially DNAPK protein was incubated with compound for 30 minutes at room temperature in reaction buffer (50 mM Hepes pH 7.5, 0.01% Brij-35, 10 mM MgCl2, 1 mM EGTA, 1 mM DTT, […] Calf Thymus DNA). The reaction was then initiated by the addition of ATP and fluorescently tagged peptide substrate (Fluorescein-[…], Thermo Fisher Scientific). […] The reaction was incubated for a further hour and the plates were read on a BMG Pherastar.
Data was analysed and IC50 values were calculated using Genedata Screener® software (Genedata, Inc., Basel, Switzerland).

[2] = molecular target: AURKB (Aurora B) (Homo sapiens (Human), UniProt Q96GD4); assay: Aurora-B enzyme assay (Z'-LYTE); format: biochemical; conditions: 75 μM ATP, arithmetic mean of two or more experiments; for IC50: read-out: AurB enz pIC50 (converted)
AURKB (Aurora B), sequence (Q96GD4 whole entry): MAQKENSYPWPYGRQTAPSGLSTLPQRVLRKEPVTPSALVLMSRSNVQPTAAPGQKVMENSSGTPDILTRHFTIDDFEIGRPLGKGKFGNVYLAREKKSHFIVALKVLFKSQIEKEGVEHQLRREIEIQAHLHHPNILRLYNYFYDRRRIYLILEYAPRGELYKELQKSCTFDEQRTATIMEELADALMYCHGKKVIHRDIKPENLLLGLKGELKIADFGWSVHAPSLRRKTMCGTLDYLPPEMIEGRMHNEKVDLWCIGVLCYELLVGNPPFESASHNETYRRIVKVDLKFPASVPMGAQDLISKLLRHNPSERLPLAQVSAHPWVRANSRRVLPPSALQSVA
Experimental: (§1) The inhibitory activity of compounds against AURKA, AURKB, JAK1, JAK2 and JAK3 was determined in Z′-LYTE® assays run by ThermoFisher Scientific as part of their SelectScreen® Biochemical Kinase Profiling Service. The Z′-LYTE® biochemical assay format employs a fluorescence-based, coupled-enzyme format and is based on the differential sensitivity of phosphorylated and non-phosphorylated peptides to proteolytic cleavage. The peptide substrate is labeled with two fluorophores—one at each end—that make up a FRET pair. In the primary reaction, the kinase transfers the gamma-phosphate of ATP to a single tyrosine, serine or threonine residue in a synthetic FRET-peptide. In the secondary reaction, a site-specific protease recognises and cleaves non-phosphorylated FRET-peptides. Phosphorylation of FRET-peptides suppresses cleavage by the Development Reagent. Cleavage disrupts FRET between the donor (i.e., coumarin) and acceptor (i.e., fluorescein) fluorophores on the FRET-peptide, whereas uncleaved, phosphorylated FRET-peptides maintain FRET. A ratiometric method, which calculates the ratio (the Emission Ratio) of donor emission to acceptor emission after excitation of the donor fluorophore at 400 nm, is used to quantitate reaction progress. Both cleaved and uncleaved FRET-peptides contribute to the fluorescence signals and therefore to the Emission Ratio. The extent of phosphorylation of the FRET-peptide can be calculated from the Emission Ratio.
(§2) 10 point three-fold dilution compound concentration-response curves, with a top concentration of 10 μM were generated from 10 mM stocks of compound solubilised in DMSO. All assays were performed in black, non-binding, low volume Corning 384-well plates (cat. #4514, Corning), in a total reaction volume of 10 μL and 1% (v/v) final DMSO concentration. […] The kinase reaction was then quenched by the addition of 5 μL of Development Reagent (ThermoFisher Scientific proprietary). […] IC50 values were calculated using XLfit software (IDBS Ltd, Surrey, UK), with the curve fit to model number 205 (sigmoidal dose-response model).
Aurora B (AurB): The 2×AURKB (Aurora B)/Ser/Thr 01 (ThermoFisher Scientific proprietary) mixture was prepared in 50 mM HEPES pH 7.5, 0.01% BRIJ-35, 10 mM MgCl2, 1 mM EGTA. […] After the 1 hour Kinase Reaction incubation, 5 μL of a 1:4096 dilution of Development Reagent was added.

[3] = molecular target: TTK (Homo sapiens (Human), UniProt P33981); assay: TTK enzyme assay (LanthaScreen Eu Kinase Binding); conditions: arithmetic mean of two or more experiments; for IC50: read-out: TTK enz pIC50 (converted)
TTK, sequence (P33981 whole entry): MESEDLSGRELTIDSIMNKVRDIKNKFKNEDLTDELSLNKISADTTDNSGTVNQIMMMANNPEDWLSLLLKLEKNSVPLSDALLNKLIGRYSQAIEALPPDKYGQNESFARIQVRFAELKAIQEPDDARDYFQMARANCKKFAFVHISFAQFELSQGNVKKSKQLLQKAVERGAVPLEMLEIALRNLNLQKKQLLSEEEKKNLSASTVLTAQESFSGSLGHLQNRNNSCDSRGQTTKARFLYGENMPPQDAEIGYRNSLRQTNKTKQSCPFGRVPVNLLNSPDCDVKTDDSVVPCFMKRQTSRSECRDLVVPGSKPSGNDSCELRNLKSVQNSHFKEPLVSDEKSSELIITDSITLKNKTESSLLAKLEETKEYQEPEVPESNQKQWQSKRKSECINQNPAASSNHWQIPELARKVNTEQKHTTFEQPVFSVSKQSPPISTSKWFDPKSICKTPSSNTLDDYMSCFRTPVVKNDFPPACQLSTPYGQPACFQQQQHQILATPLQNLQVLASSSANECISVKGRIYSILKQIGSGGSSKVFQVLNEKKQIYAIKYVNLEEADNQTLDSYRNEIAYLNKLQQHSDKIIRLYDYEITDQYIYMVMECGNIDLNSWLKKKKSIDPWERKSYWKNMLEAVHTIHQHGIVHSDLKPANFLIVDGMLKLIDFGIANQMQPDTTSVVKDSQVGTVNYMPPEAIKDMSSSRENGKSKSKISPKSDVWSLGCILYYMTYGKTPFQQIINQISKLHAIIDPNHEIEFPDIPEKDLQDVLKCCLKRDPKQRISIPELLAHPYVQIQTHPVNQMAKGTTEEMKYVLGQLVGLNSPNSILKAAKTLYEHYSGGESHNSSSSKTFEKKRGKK
Experimental: The inhibitory activity of compounds against TTK was determined in a LanthaScreen® Eu Kinase Binding assay run by ThermoFisher Scientific as part of their SelectScreen® Biochemical Kinase Profiling Service. The LanthaScreen® Eu Kinase Binding assay format uses binding of an Alexa Fluor® conjugate or “tracer” to a kinase, which is detected by addition of a Eu-labeled anti-tag antibody. […] The degree of FRET measured in the assay is used to determine the binding of a compound.
10 point three-fold dilution compound concentration-response curves, with a top concentration of 10 μM were generated from 10 mM stocks of compound solubilised in DMSO. All assays were performed in white, low volume Greiner 384-well plates (cat. #784207, Greiner), in a total reaction volume of 16 μL and 1% (v/v) final DMSO concentration. […] Plates were then read using a fluorescence plate reader. IC50 values were calculated using XLfit software (IDBS Ltd, Surrey, UK), with the curve fit to model number 205 (sigmoidal dose-response model).

[4] = molecular target: AURKA (Aurora A) (Homo sapiens (Human), UniProt O14965); assay: Aurora-A enzyme assay (Z'-LYTE); format: biochemical; conditions: 10 μM ATP, arithmetic mean of two or more experiments; for IC50: read-out: AurA enz pIC50 (converted)
AURKA (Aurora A), sequence (O14965 whole entry): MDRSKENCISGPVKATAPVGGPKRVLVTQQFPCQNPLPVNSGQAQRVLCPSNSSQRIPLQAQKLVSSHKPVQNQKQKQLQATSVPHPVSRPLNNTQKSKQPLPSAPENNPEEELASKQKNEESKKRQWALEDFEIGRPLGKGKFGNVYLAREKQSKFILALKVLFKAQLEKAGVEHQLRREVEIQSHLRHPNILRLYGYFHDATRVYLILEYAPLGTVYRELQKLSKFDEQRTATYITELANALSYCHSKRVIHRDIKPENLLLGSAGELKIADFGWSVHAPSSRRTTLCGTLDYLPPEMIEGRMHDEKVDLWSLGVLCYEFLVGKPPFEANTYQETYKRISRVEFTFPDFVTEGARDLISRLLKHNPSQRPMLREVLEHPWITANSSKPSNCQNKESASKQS
Experimental: as §1, §2
Aurora A (AurA): The 2×AURKA (Aurora A)/Ser/Thr 01 (ThermoFisher Scientific proprietary) mixture was prepared in 50 mM HEPES pH 7.5, 0.01% BRIJ-35, 10 mM MgCl2, 1 mM EGTA. […] After the 1 hour Kinase Reaction incubation, 5 μL of a 1:4096 dilution of Development Reagent was added.

[5] = molecular target: JAK2 (Homo sapiens (Human), UniProt O60674); assay: JAK2 enzyme assay (Z'-LYTE); format: biochemical; conditions: 25 μM ATP, arithmetic mean of two or more experiments; for IC50: read-out: JAK2 enz pIC50 (converted)
JAK2, sequence (O60674 whole entry): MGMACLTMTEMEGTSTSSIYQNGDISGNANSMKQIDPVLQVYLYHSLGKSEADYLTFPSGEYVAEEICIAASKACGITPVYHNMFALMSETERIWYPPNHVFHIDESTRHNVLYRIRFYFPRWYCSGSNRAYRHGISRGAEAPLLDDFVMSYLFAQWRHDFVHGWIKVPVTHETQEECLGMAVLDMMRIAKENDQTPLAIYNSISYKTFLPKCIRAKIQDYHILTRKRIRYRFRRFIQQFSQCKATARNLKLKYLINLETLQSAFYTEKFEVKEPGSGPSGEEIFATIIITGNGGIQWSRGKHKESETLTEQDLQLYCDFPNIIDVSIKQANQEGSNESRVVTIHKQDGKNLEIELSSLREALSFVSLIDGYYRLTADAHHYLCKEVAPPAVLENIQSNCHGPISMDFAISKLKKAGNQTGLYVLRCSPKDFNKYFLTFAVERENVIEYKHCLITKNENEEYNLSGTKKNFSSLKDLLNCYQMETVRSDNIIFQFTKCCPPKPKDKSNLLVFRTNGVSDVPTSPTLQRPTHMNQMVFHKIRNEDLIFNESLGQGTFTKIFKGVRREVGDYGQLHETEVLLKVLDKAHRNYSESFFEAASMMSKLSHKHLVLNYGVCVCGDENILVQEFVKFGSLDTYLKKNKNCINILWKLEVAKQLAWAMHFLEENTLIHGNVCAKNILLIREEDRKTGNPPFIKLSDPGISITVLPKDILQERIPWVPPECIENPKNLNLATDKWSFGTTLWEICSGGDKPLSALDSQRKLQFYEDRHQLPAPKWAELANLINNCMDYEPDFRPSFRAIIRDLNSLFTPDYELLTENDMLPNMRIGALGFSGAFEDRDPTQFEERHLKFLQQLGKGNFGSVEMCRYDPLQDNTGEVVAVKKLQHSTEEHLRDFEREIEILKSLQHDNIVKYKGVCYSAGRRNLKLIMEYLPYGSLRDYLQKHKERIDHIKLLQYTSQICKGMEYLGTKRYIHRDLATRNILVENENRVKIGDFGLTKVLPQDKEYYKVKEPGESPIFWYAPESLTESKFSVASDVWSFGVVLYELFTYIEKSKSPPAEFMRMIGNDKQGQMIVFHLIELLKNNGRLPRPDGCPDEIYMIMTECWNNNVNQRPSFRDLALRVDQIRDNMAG
Experimental: as §1, §2
JAK2: The 2×JAK2/Tyr 06 (ThermoFisher Scientific proprietary) mixture was prepared in 50 mM HEPES pH 7.5, 0.01% BRIJ-35, 10 mM MgCl2, 1 mM EGTA. […] After the 1 hour Kinase Reaction incubation, 5 μL of a 1:128 dilution of Development Reagent was added.

SMILES | DNA-PK enz pIC50 [1] | AurB enz pIC50 [2] | TTK enz pIC50 [3] | AurA enz pIC50 [4] | JAK2 enz pIC50 [5] | IC50 [1] [nM] | IC50 [2] [nM] | IC50 [3] [nM] | IC50 [4] [nM] | IC50 [5] [nM]
COc1ccnc2cc(C)c(Nc3ncc4c(n3)n([C@H]3CC[C@H](O)CC3)c(=O)n4C)cc12 [Example 9, 9-((1r,4r)-4-hydroxycyclohexyl)-2-((4-methoxy-7-methylquinolin-6-yl)amino)-7-methyl-7,9-dihydro-8H-purin-8-one] | >10 | <5 | 6.1 | <5.1 | <5 | – | – | – | – | –
Cc1cc2nccnc2cc1Nc1ncc2c(n1)n([C@H]1CC[C@H](O)CC1)c(=O)n2C [Example 10, 9-((1r,4r)-4-hydroxycyclohexyl)-7-methyl-2-((7-methylquinoxalin-6-yl)amino)-7,9-dihydro-8H-purin-8-one] | – | – | – | – | – | < 0.1 | > 10000 | 398 | > 10000 | > 10000
Cc1cc2ncccc2cc1Nc1ncc2c(n1)n([C@H]1CC[C@@H](O)CC1)c(=O)n2C [Example 11, 9-((1s,4s)-4-hydroxycyclohexyl)-7-methyl-2-((7-methylquinolin-6-yl)amino)-7,9-dihydro-8H-purin-8-one] | – | – | – | – | – | 0.158 | > 10000 | 398 | > 10000 | > 10000
Cc1cc2nnccc2cc1Nc1ncc2c(n1)n([C@H]1CC[C@@H](O)CC1)c(=O)n2C [Example 12, 9-((1s,4s)-4-hydroxycyclohexyl)-7-methyl-2-((7-methylcinnolin-6-yl)amino)-7,9-dihydro-8H-purin-8-one] | >10 | <5 | 6.3 | <5 | <5 | – | – | – | – | –
Cc1cc2nccnc2cc1Nc1ncc2c(n1)n([C@H]1CC[C@@H](O)CC1)c(=O)n2C [Example 13, 9-((1s,4s)-4-hydroxycyclohexyl)-7-methyl-2-((7-methylquinoxalin-6-yl)amino)-7,9-dihydro-8H-purin-8-one] | – | – | – | – | – | 0.2 | > 10000 | 316 | > 10000 | > 10000
Cc1cc2nccnc2cc1Nc1ncc2c(n1)n([C@H]1CC[C@](C)(O)CC1)c(=O)n2C [Example 18, 9-((1r,4r)-4-hydroxy-4-methylcyclohexyl)-7-methyl-2-((7-methylquinoxalin-6-yl)amino)-7,9-dihydro-8H-purin-8-one] | – | – | – | – | – | 0.251 | > 10000 | 1580 | > 10000 | > 10000
Cc1cc2nccnc2cc1Nc1ncc2c(n1)n([C@H]1CC[C@@](C)(O)CC1)c(=O)n2C [Example 19, 9-((1s,4s)-4-hydroxy-4-methylcyclohexyl)-7-methyl-2-((7-methylquinoxalin-6-yl)amino)-7,9-dihydro-8H-purin-8-one] | – | – | – | – | – | 0.158 | > 10000 | 200 | > 10000 | > 10000
Cc1cc2nccnc2cc1Nc1ncc2c(n1)n([C@]1(C)CC[C@H](O)CC1)c(=O)n2C [Example 20, 9-((1s,4s)-4-hydroxy-1-methylcyclohexyl)-7-methyl-2-((7-methylquinoxalin-6-yl)amino)-7,9-dihydro-8H-purin-8-one] | 10.0 | <5 | 6.4 | <5 | <5 | – | – | – | – | –
Cc1cc2nnccc2cc1Nc1ncc2c(n1)n([C@H]1CCOC1)c(=O)n2C [Example 21, (S)-7-methyl-2-((7-methylcinnolin-6-yl)amino)-9-(tetrahydrofuran-3-yl)-7,9-dihydro-8H-purin-8-one] | >10 | <5 | 6.4 | <5 | <5 | – | – | – | – | –
Cc1cc2nccnc2cc1Nc1ncc2c(n1)n([C@H]1CCOC1)c(=O)n2C [Example 22, (S)-7-methyl-2-((7-methylquinoxalin-6-yl)amino)-9-(tetrahydrofuran-3-yl)-7,9-dihydro-8H-purin-8-one] | 9.8 | <5 | 5.5 | <5 | <5 | – | – | – | – | –
Cc1cc2nnccc2cc1Nc1ncc2c(n1)n([C@@H]1CCOC1)c(=O)n2C [Example 23, (R)-7-methyl-2-((7-methylcinnolin-6-yl)amino)-9-(tetrahydrofuran-3-yl)-7,9-dihydro-8H-purin-8-one] | 9.4 | <5 | 5.9 | <5 | <5 | – | – | – | – | –
